Test results as given in ChEMBL document CHEMBL1201862, “PubChem BioAssay data set” (2004).
Activity calls are given as the source filed them.

Experiments:
[1] = target: T1, Short transient receptor potential channel 4 (Mus musculus, UniProt Q9QUQ5); test: TRPC4 positive allosteric modulators, dose response, cell-based, HEK293 TRPC4/mu-opioid, Fluo-4 calcium, EC20 DAMGO (AID 434941); format: functional
T1 sequence (Q9QUQ5 whole entry): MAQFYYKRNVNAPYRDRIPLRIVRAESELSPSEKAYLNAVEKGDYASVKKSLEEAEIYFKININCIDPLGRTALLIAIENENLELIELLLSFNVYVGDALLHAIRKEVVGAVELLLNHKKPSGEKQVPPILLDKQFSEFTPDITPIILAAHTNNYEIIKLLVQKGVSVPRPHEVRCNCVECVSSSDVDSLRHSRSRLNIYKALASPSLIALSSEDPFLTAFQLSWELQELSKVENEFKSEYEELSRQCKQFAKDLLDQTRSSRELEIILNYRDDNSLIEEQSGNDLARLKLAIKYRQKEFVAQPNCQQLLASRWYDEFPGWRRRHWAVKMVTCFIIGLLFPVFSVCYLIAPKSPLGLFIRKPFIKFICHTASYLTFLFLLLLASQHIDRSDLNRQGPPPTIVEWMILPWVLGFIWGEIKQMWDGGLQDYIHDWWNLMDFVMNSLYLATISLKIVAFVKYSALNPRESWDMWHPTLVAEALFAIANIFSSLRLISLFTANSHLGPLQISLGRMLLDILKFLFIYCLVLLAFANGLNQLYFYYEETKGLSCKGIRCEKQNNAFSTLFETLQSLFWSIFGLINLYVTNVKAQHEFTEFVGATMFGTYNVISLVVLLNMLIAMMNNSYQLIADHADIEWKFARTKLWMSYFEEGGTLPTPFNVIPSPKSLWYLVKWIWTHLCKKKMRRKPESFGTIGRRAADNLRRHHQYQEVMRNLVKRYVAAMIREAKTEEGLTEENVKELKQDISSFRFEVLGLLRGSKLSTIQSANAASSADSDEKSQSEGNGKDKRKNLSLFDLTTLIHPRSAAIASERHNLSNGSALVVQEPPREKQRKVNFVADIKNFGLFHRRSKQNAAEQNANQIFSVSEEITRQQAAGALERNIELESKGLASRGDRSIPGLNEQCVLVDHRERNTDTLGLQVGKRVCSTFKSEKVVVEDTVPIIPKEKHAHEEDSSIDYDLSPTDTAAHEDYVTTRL

[2] = target: Disintegrin and metalloproteinase domain-containing protein 17 (Homo sapiens, UniProt P78536); test: exosite inhibitors of ADAM17, dose response, biochemical (AID 743260)
Chain of Disintegrin and metalloproteinase domain-containing protein 17 (P78536 whole entry, the tested form may be a part): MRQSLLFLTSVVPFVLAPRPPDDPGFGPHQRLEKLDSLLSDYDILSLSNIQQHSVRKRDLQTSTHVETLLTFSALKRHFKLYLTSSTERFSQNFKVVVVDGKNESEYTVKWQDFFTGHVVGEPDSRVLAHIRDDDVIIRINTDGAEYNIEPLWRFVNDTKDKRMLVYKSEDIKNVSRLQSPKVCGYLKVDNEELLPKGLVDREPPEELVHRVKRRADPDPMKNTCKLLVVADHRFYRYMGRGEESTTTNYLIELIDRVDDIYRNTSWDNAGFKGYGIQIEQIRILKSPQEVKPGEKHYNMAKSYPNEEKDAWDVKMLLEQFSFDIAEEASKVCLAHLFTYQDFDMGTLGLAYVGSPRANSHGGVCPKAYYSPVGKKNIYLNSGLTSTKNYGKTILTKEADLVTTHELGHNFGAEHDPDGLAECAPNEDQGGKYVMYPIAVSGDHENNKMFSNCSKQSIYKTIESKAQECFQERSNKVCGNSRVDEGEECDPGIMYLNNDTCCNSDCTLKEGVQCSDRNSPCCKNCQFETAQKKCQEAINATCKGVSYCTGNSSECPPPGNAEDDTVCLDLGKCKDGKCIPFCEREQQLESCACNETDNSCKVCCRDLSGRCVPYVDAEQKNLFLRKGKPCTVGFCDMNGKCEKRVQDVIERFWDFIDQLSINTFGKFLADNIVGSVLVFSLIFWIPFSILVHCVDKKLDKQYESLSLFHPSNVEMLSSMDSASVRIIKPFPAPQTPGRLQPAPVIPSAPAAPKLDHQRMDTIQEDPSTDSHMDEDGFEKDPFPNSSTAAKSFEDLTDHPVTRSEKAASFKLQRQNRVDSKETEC

[3] = target: G-protein coupled receptor 35 (Homo sapiens, UniProt Q9HC97); test: GPR35 antagonists blocking zaprinast-driven arrestin recruitment, primary screen, imaging, U2OS, beta-arrestin-GFP, zaprinast agonist (AID 2058); format: functional;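 note: antagonist potency meaning inhibition of agonist-induced arrestin redistribution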
Chain of G-protein coupled receptor 35 (Q9HC97 whole entry): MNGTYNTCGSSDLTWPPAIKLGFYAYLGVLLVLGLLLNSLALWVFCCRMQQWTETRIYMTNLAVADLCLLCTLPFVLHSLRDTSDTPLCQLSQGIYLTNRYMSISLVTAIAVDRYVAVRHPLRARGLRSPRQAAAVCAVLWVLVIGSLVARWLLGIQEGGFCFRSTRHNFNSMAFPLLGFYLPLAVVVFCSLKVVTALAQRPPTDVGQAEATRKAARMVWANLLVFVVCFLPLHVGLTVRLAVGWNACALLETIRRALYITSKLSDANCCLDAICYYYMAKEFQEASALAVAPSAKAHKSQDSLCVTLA

[4] = ADAM10 protease inhibitors, dose response, selectivity assay for ADAM17 exosite inhibitor project, biochemical, FRET peptide substrate, recombinant human ADAM10 (AID 743259);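 note: ADAM10 enzyme cleaving a FRET peptide substrate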
[5] = target: Eukaryotic translation initiation factor 4H (Homo sapiens, UniProt Q15056); test: human eIF4H binding inhibitors, primary screen, translation initiation inhibitor project, biochemical, uHTS, fluorescence polarization (AID 2012)
[6] = target: Polyadenylate-binding protein 1 (Homo sapiens, UniProt P11940); test: PABP poly(A) RNA binding inhibitors, primary screen, biochemical, fluorescence polarization, uHTS (AID 2014)
Chain of Polyadenylate-binding protein 1 (P11940 whole entry): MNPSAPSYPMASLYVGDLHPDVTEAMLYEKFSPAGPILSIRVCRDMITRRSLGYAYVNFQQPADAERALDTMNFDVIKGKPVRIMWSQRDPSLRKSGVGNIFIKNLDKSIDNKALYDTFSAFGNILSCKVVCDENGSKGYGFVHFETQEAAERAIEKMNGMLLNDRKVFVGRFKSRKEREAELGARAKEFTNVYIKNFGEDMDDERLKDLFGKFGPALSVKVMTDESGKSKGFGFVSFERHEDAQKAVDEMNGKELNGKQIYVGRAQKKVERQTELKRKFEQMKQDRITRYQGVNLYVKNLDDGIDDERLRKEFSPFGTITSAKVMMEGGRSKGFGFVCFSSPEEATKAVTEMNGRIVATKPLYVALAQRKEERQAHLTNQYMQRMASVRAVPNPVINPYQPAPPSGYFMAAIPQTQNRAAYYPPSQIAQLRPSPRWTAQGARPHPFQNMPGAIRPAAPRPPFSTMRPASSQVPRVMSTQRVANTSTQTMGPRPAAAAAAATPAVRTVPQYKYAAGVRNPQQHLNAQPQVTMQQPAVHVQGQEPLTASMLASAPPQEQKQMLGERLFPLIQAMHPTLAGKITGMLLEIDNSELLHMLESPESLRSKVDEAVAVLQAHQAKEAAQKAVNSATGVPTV

[7] = cytotoxicity in HEK-293T cells, dose response, cytotoxicity control for BCR NF-kB inhibitor project, luminescence, B-cell screen hits (AID 489021); format: functional, cell-based;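 note: HEK-293T cells carrying an NF-kB luciferase reporter; cells exposed to compound for about 14 hours before viability readout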
[8] = target: T2, Eukaryotic translation initiation factor 2-alpha kinase 3 (Homo sapiens, UniProt Q9NZJ5); test: Counterscreen assay for PERK inhibitors: Dose response cell-based high throughput screening assay to measure inhibition of PERK at 6 hours. [Related pubchem assays: 1522, 1416 ]; format: functional
T2 sequence (Q9NZJ5 whole entry): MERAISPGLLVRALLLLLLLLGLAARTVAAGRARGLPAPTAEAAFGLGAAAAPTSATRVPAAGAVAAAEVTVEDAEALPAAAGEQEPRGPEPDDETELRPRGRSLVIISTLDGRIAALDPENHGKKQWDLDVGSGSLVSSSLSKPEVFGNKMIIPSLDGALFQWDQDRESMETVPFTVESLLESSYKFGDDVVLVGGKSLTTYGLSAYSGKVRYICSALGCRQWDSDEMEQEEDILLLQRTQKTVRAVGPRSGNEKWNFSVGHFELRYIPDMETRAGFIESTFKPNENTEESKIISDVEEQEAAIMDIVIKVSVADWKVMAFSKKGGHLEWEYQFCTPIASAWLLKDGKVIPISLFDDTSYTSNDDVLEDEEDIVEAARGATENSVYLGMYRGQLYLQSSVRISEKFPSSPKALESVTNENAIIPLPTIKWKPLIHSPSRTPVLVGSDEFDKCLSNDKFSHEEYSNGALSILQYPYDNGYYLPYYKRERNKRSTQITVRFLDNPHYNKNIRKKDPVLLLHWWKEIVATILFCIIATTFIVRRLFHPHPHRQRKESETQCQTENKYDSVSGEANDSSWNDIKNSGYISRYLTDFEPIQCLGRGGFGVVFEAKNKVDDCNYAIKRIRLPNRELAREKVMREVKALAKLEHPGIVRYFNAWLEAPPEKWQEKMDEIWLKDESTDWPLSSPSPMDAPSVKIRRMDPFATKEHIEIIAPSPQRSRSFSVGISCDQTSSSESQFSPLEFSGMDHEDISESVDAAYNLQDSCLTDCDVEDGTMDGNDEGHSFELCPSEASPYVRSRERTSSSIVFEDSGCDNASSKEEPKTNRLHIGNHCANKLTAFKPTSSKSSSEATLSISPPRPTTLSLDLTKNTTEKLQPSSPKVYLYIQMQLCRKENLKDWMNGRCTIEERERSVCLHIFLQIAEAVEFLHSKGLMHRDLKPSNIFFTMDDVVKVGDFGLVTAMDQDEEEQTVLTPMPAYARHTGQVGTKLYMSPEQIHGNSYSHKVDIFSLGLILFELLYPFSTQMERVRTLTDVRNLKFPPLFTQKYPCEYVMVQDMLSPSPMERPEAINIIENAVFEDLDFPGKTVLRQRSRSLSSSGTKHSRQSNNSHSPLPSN

[9] = HepG2 cell cytotoxicity, dose response, cytotoxicity control for non-replicating M. tuberculosis project (AID 489018); format: functional; conditions: Mycobacterium tuberculosis
[10] = target: T2, Eukaryotic translation initiation factor 2-alpha kinase 3; test: Dose response cell-based high-throughput screening assay to measure PERK inhibition. [Related pubchem assays: 1416 ]; format: functional
[11] = Vero E6 cell cytotoxicity, dose response, cytotoxicity control for non-replicating M. tuberculosis project, secondary assay (AID 492998); format: functional, VeroE6; conditions: Vero C1008
[12] = THP-1 cell cytotoxicity, dose response, cytotoxicity control for non-replicating M. tuberculosis project (AID 489025); format: functional
[13] = target: T3, Dual specificity protein phosphatase 6 (Rattus norvegicus, UniProt Q64346); format: functional
T3 sequence (Q64346 whole entry): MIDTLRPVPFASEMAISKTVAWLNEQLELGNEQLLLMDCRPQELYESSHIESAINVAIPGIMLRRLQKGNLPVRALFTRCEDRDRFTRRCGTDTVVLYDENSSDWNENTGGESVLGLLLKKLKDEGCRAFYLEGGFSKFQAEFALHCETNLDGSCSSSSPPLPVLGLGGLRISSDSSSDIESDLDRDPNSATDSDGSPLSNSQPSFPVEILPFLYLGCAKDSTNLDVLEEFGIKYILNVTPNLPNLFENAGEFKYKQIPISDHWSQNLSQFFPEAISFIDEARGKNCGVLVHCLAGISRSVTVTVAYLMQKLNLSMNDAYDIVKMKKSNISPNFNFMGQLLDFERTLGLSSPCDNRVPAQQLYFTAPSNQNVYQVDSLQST

[14] = target: Glyceraldehyde-3-phosphate dehydrogenase (Homo sapiens, UniProt P04406)
Chain of Glyceraldehyde-3-phosphate dehydrogenase (P04406 whole entry): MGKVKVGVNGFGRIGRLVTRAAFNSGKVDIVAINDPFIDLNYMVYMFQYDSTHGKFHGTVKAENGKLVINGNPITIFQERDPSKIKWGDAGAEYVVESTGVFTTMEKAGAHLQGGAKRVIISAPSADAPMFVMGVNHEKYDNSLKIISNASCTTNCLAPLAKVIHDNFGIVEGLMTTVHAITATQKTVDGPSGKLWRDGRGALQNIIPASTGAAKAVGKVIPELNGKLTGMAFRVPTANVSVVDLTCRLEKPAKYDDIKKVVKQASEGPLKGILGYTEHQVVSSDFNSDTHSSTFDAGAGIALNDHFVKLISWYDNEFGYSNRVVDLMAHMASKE

[15] = target: T4, Tyrosine-protein phosphatase non-receptor type 7 (Homo sapiens, UniProt P35236); format: functional
T4 sequence (P35236 whole entry): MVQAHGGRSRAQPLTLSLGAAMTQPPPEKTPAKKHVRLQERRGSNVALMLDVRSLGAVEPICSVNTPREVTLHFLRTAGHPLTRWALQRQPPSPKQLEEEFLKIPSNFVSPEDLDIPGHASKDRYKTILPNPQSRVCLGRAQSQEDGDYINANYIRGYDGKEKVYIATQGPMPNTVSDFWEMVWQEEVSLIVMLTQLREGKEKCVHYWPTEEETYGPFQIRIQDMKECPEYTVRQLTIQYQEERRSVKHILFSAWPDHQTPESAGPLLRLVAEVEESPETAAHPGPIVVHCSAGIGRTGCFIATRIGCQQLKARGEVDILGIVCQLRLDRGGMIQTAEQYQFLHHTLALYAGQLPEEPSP

[16] = target: T3, Dual specificity protein phosphatase 6
[17] = target: T5, Rac GTPase-activating protein 1 (Homo sapiens, UniProt Q9H0H5); test: MgcRacGAP GTPase-activating activity inhibitors, confirmation, biochemical, ADP Hunter fluorescence, primary and confirmatory (AID 624330); format: functional
T5 sequence (Q9H0H5 whole entry): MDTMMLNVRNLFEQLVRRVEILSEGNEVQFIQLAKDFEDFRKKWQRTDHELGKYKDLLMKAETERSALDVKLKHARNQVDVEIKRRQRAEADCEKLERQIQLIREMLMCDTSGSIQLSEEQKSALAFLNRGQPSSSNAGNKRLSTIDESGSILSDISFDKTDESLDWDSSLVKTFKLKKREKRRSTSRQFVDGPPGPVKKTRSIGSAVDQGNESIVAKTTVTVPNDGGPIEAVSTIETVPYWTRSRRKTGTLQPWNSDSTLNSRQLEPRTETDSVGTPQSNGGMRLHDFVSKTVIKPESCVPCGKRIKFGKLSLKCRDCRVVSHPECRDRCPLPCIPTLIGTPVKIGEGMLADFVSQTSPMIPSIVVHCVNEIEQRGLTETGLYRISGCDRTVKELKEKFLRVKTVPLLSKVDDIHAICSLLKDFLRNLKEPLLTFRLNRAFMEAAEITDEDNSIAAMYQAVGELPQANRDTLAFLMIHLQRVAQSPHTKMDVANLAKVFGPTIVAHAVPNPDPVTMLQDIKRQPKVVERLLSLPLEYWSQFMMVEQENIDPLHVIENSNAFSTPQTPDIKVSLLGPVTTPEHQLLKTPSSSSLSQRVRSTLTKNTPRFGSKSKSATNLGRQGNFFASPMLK

[18] = target: G-protein coupled receptor 55 (Homo sapiens, UniProt Q9Y2T6); test: GPR55 agonists via beta-arrestin recruitment, primary screen, imaging, U2OS cells, beta-arrestin-GFP redistribution (AID 1961); format: functional
Chain of G-protein coupled receptor 55 (Q9Y2T6 whole entry): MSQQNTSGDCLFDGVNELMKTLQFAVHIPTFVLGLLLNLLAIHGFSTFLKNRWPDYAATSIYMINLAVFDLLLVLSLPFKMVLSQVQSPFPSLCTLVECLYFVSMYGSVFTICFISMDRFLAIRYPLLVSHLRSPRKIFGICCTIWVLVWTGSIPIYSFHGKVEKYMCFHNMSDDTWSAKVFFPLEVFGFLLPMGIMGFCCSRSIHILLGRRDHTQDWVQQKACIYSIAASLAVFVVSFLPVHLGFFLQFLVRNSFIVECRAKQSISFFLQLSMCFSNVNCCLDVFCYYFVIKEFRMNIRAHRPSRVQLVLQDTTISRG

[19] = cytotoxicity in HPDE-C7 cells, cell-based, fluorescence, HTS (AID 430); format: functional; conditions: Homo sapiens
[20] = cytotoxicity in KRAS-transformed pancreatic duct cells, primary screen, cell-based, fluorescence, HTS (AID 431); format: functional; conditions: Homo sapiens;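 note: cell line used: HPDE-C7K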
[21] = target: T4, Tyrosine-protein phosphatase non-receptor type 7; test: redox-dependent HePTP inhibition, mechanism study, biochemical, fluorescence (AID 2068); format: functional
[22] = target: DNA dC->dU-editing enzyme APOBEC-3G (Homo sapiens, UniProt Q9HC16); test: Dose Response confirmation of small molecule APOBEC3G DNA Deaminase Inhibitors via a fluorescence-based single-stranded DNA deaminase assay. [Related pubchem assays (depositor defined):AID493012, AID493028]; format: functional
Chain of DNA dC->dU-editing enzyme APOBEC-3G (Q9HC16 whole entry): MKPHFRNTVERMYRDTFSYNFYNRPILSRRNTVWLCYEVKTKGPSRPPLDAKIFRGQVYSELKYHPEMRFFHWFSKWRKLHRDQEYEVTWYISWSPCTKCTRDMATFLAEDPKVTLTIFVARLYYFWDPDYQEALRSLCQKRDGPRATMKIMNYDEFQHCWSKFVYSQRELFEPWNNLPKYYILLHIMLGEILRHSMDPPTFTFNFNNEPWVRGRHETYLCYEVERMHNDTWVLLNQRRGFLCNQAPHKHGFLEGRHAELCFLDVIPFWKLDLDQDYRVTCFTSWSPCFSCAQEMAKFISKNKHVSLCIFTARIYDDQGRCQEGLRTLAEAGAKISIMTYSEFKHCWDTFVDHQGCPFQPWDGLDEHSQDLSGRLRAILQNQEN

[23] = target: DNA dC->dU-editing enzyme APOBEC-3A (Homo sapiens, UniProt P31941); test: APOBEC3A DNA deaminase inhibitors, dose response, biochemical (AID 504722); format: functional
Chain of DNA dC->dU-editing enzyme APOBEC-3A (P31941 whole entry): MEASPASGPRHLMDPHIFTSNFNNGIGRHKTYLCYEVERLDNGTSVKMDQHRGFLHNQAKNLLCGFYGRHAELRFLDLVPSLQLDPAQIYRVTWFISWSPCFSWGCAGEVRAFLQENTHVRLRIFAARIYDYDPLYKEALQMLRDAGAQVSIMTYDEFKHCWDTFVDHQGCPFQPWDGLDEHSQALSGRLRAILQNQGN

In the case of `O=C(CCN1CCN(Cc2ccccc2)CC1)Nc1ccc(OCc2ccccc2)cc1`, the EC50 [1] is reported as 0.13 µM (active).

For `Cc1nc(N2CCCCC2)c2c(C)c(C(=O)Nc3ccc4c(c3)OCCO4)sc2n1`, the IC50 [2] was > 69.5 µM (inactive), the IC50 [3] was 2.07 µM (active) and the IC50 [4] was > 69.5 µM (inactive).

For `CCCC[N+]12C3C[C@H](C4[C@H](O)[C@]5(C[C@@H]41)c1ccccc1N(C)[C@@H]35)[C@H](CC)[C@H]2O` (some centres not stated), the IC50 [5] was > 100 µM (inactive) and the IC50 [6] was 5.27 µM (active).

For `CCC(CC)C(=O)Nc1ccc(Sc2ccc([N+](=O)[O-])cc2)cc1`, the IC50 [7] was > 80 µM (inactive).

With `N#Cc1ccsc1NC(=O)c1ccc(Cl)c([N+](=O)[O-])c1` the EC50 [8] was > 55.7 µM (not active), the CC50 [9] was > 20 µM (active) and the EC50 [10] was > 55.7 µM (not active). The CC50 [11] was 13.9 µM (active) and the CC50 [12] was 20.9 µM (active).

With `CCCCCCCCCCCCCCCCCCC=CCCCCCC(=O)O` the IC50 [13] was > 100 µM (inactive), the IC50 [14] was > 100 µM (not active) and the IC50 [15] was 0.801 µM (active). The IC50 [16] was > 100 µM (inactive).

For `Cc1c(O)ccc2c3c(c(=O)oc12)CCCC3`, the EC50 [8] was > 55.7 µM (not active), the EC50 [10] was > 55.7 µM (not active) and the IC50 [17] was 22.5 µM (active).

With `Cc1[nH]c2ccc(-c3nnc(SCC(=O)NCc4ccco4)n3Cc3ccccc3)cc2c1C` the EC50 [18] was 5.78 µM (active).

With `CCCCCCn1c(N2CCN(c3ccccc3)CC2)nc2c1c(=O)n(C)c(=O)n2C` the EC50 [19] was > 20 µM (not active), the EC50 [20] was > 20 µM (not active) and the EC50 [1] was 6.68 µM (active).

For `COc1cc(C(=S)NCc2ccc(Cl)c(C)c2)ccc1O`, the IC50 [13] was > 100 µM (inactive) and the IC50 [21] was 3.06 µM (active).

With `CC1(C)CC2CC(C)(CN2C(=O)Nc2ccc3nc(-c4ccco4)c(-c4ccco4)nc3c2)C1` (configuration not stated) the IC50 [21] was 2.92 µM (active).

For `CC1Cc2ccccc2N1S(=O)(=O)c1cnc(Cl)c(Cl)c1` (configuration not stated), the IC50 [7] was > 80 µM (inactive).

For `O=C(O)c1ccc(/C=N/n2cc(-c3ccccc3)nc2S)cc1`, the IC50 [22] was 3.33 µM (active) and the IC50 [23] was > 100 µM (inactive).

In the case of `CCn1c(S)nnc1CSc1nc2ccccc2s1`, the IC50 [22] is reported as 3.73 µM (active), the IC50 [23] is reported as > 100 µM (inactive) and the EC50 [18] is reported as > 32 µM (inactive).
